Measurements reported in the NIST ThermoML archive (doi:10.1021/je025649t).
Numbers after ± are expanded uncertainties.

Assays:
[1] = excess molar enthalpy (molar enthalpy of mixing); xn = mol fraction of the nth substance listed; conditions: 298.15 K, 101 kPa, Liquid, Flow calorimetry
[2] = heat capacity at constant pressure per volume; xn = mol fraction of the nth substance listed; conditions: 298.15 K, 101 kPa, Liquid, Flow calorimetry
[3] = refractive index (Na D-line) (dimensionless); xn = mol fraction of the nth substance listed; conditions: 298.15 K, 101 kPa, Liquid, refractometer
[4] = xn = mol fraction of the nth substance listed; conditions: 298.15 K, 101 kPa, Liquid, Vibrating tube method
[5] = 298.15 K; 101.33 kPa; Liquid; Vibrating tube method
[6] = molar heat capacity at constant pressure; conditions: 298.15 K; 101.33 kPa; Liquid; Flow calorimetry
[7] = refractive index (Na D-line) (dimensionless); conditions: 298.15 K; 101.33 kPa; Liquid; refractometer

CCCCCC(C)=O [2-heptanone] + C1CCOCC1
Conditions	excess molar enthalpy [kcal/mol]	heat capacity [J/K/m3]	mass density [kg/m3]	refractive index
[1], x2 = 0.1	0.00354 ± 0.000215	–	–	–
[1], x2 = 0.15	0.0053 ± 0.000232	–	–	–
[1], x2 = 0.2	0.00696 ± 0.000239	–	–	–
[1], x2 = 0.25	0.0082 ± 0.000263	–	–	–
[1], x2 = 0.3	0.00946 ± 0.000263	–	–	–
[1], x2 = 0.35	0.0106 ± 0.000263	–	–	–
[1], x2 = 0.4	0.0118 ± 0.000287	–	–	–
[1], x2 = 0.45	0.0129 ± 0.000287	–	–	–
[1], x2 = 0.5	0.0138 ± 0.000287	–	–	–
[1], x2 = 0.55	0.0144 ± 0.000311	–	–	–
[1], x2 = 0.6	0.0147 ± 0.000311	–	–	–
[1], x2 = 0.65	0.0146 ± 0.000311	–	–	–
[1], x2 = 0.7	0.0142 ± 0.000287	–	–	–
[1], x2 = 0.75	0.0134 ± 0.000287	–	–	–
[1], x2 = 0.8	0.012 ± 0.000287	–	–	–
[1], x2 = 0.85	0.0103 ± 0.000263	–	–	–
[1], x2 = 0.9	0.00793 ± 0.000263	–	–	–
[2], x2 = 0.0687	–	1711900 ± 2700	–	–
[2], x2 = 0.1469	–	1699600 ± 2600	–	–
[2], x2 = 0.2226	–	1687400 ± 2600	–	–
[2], x2 = 0.3113	–	1672200 ± 2600	–	–
[2], x2 = 0.3855	–	1659100 ± 2600	–	–
[2], x2 = 0.4613	–	1645000 ± 2500	–	–
[2], x2 = 0.5449	–	1628000 ± 2500	–	–
[2], x2 = 0.6288	–	1610700 ± 2500	–	–
[2], x2 = 0.7034	–	1594700 ± 2500	–	–
[2], x2 = 0.7801	–	1576700 ± 2400	–	–
[2], x2 = 0.8581	–	1558500 ± 2400	–	–
[2], x2 = 0.9388	–	1538500 ± 2400	–	–
[3], x2 = 0.0855	–	–	–	1.4075 ± 0.00039
[3], x2 = 0.1588	–	–	–	1.4081 ± 0.00037
[3], x2 = 0.2375	–	–	–	1.40879 ± 0.00036
[3], x2 = 0.3113	–	–	–	1.40947 ± 0.00034
[3], x2 = 0.3532	–	–	–	1.40988 ± 0.00033
[3], x2 = 0.3936	–	–	–	1.41029 ± 0.00033
[3], x2 = 0.4287	–	–	–	1.41065 ± 0.00032
[3], x2 = 0.4658	–	–	–	1.41105 ± 0.00031
[3], x2 = 0.5486	–	–	–	1.41198 ± 0.0003
[3], x2 = 0.5896	–	–	–	1.41246 ± 0.00029
[3], x2 = 0.6261	–	–	–	1.41291 ± 0.00028
[3], x2 = 0.6665	–	–	–	1.41343 ± 0.00027
[3], x2 = 0.7046	–	–	–	1.41393 ± 0.00026
[3], x2 = 0.7855	–	–	–	1.41507 ± 0.00025
[3], x2 = 0.8677	–	–	–	1.41633 ± 0.00023
[3], x2 = 0.9473	–	–	–	1.41768 ± 0.00022
[4], x2 = 0.0796	–	–	814.73 ± 0.81	–
[4], x2 = 0.1679	–	–	819.18 ± 0.77	–
[4], x2 = 0.2235	–	–	822.12 ± 0.75	–
[4], x2 = 0.3185	–	–	827.4 ± 0.72	–
[4], x2 = 0.3518	–	–	829.33 ± 0.7	–
[4], x2 = 0.4045	–	–	832.49 ± 0.68	–
[4], x2 = 0.4377	–	–	834.53 ± 0.67	–
[4], x2 = 0.4617	–	–	836.04 ± 0.66	–
[4], x2 = 0.5166	–	–	839.61 ± 0.64	–
[4], x2 = 0.5455	–	–	841.54 ± 0.63	–
[4], x2 = 0.5907	–	–	844.65 ± 0.61	–
[4], x2 = 0.6312	–	–	847.53 ± 0.6	–
[4], x2 = 0.6667	–	–	850.14 ± 0.58	–
[4], x2 = 0.7077	–	–	853.23 ± 0.57	–
[4], x2 = 0.7101	–	–	853.42 ± 0.57	–
[4], x2 = 0.7907	–	–	859.84 ± 0.54	–
[4], x2 = 0.8696	–	–	866.59 ± 0.5	–
[4], x2 = 0.9539	–	–	874.37 ± 0.47	–

O=C1CCCCC1 [cyclohexanone] + C1CCOCC1
[1]
Conditions	excess molar enthalpy [kcal/mol]
x2 = 0.1	0.00647 ± 0.000239
x2 = 0.15	0.00919 ± 0.000263
x2 = 0.2	0.0117 ± 0.000287
x2 = 0.25	0.0139 ± 0.000287
x2 = 0.3	0.016 ± 0.000311
x2 = 0.35	0.0176 ± 0.000335
x2 = 0.4	0.0189 ± 0.000335
x2 = 0.45	0.0198 ± 0.000335
x2 = 0.5	0.0207 ± 0.000335
x2 = 0.55	0.0214 ± 0.000359
x2 = 0.6	0.0215 ± 0.000359
x2 = 0.65	0.0209 ± 0.000359
x2 = 0.7	0.0199 ± 0.000335
x2 = 0.75	0.0184 ± 0.000335
x2 = 0.8	0.0164 ± 0.000311
x2 = 0.85	0.0137 ± 0.000311
x2 = 0.9	0.01 ± 0.000263

CCCC(C)=O [pentan-2-one] + C1CCOCC1
Conditions	excess molar enthalpy [kcal/mol]	heat capacity [J/K/m3]	mass density [kg/m3]	refractive index
[1], x2 = 0.1	0.00636 ± 0.000239	–	–	–
[1], x2 = 0.15	0.0092 ± 0.000263	–	–	–
[1], x2 = 0.2	0.0119 ± 0.000287	–	–	–
[1], x2 = 0.25	0.0144 ± 0.000311	–	–	–
[1], x2 = 0.3	0.0164 ± 0.000311	–	–	–
[1], x2 = 0.35	0.0182 ± 0.000335	–	–	–
[1], x2 = 0.4	0.0197 ± 0.000335	–	–	–
[1], x2 = 0.45	0.0209 ± 0.000359	–	–	–
[1], x2 = 0.5	0.0218 ± 0.000359	–	–	–
[1], x2 = 0.55	0.0222 ± 0.000359	–	–	–
[1], x2 = 0.6	0.0222 ± 0.000359	–	–	–
[1], x2 = 0.65	0.0219 ± 0.000359	–	–	–
[1], x2 = 0.7	0.0212 ± 0.000359	–	–	–
[1], x2 = 0.75	0.0197 ± 0.000335	–	–	–
[1], x2 = 0.8	0.0174 ± 0.000335	–	–	–
[1], x2 = 0.85	0.0145 ± 0.000311	–	–	–
[1], x2 = 0.9	0.0107 ± 0.000287	–	–	–
[2], x2 = 0.0611	–	1698200 ± 2600	–	–
[2], x2 = 0.1398	–	1685200 ± 2600	–	–
[2], x2 = 0.2219	–	1670700 ± 2600	–	–
[2], x2 = 0.3029	–	1656100 ± 2600	–	–
[2], x2 = 0.3789	–	1641900 ± 2500	–	–
[2], x2 = 0.457	–	1627300 ± 2500	–	–
[2], x2 = 0.5376	–	1611700 ± 2500	–	–
[2], x2 = 0.6153	–	1596800 ± 2500	–	–
[2], x2 = 0.698	–	1580600 ± 2400	–	–
[2], x2 = 0.7772	–	1565100 ± 2400	–	–
[2], x2 = 0.8503	–	1550300 ± 2400	–	–
[2], x2 = 0.9311	–	1533300 ± 2400	–	–
[3], x2 = 0.0811	–	–	–	1.39011 ± 0.00021
[3], x2 = 0.1565	–	–	–	1.39223 ± 0.00021
[3], x2 = 0.2425	–	–	–	1.39468 ± 0.00021
[3], x2 = 0.3122	–	–	–	1.39668 ± 0.00021
[3], x2 = 0.3557	–	–	–	1.39796 ± 0.00021
[3], x2 = 0.4037	–	–	–	1.39937 ± 0.00021
[3], x2 = 0.4406	–	–	–	1.40047 ± 0.00021
[3], x2 = 0.4757	–	–	–	1.40153 ± 0.00021
[3], x2 = 0.5107	–	–	–	1.40259 ± 0.00021
[3], x2 = 0.5449	–	–	–	1.40364 ± 0.00021
[3], x2 = 0.5933	–	–	–	1.40514 ± 0.00021
[3], x2 = 0.6252	–	–	–	1.40614 ± 0.00021
[3], x2 = 0.6681	–	–	–	1.4075 ± 0.00021
[3], x2 = 0.708	–	–	–	1.40878 ± 0.00021
[3], x2 = 0.7915	–	–	–	1.4115 ± 0.00021
[3], x2 = 0.8776	–	–	–	1.41439 ± 0.00021
[3], x2 = 0.9411	–	–	–	1.41658 ± 0.00021
[4], x2 = 0.0708	–	–	806.39 ± 0.42	–
[4], x2 = 0.1523	–	–	812.26 ± 0.43	–
[4], x2 = 0.2361	–	–	818.39 ± 0.43	–
[4], x2 = 0.3015	–	–	823.22 ± 0.43	–
[4], x2 = 0.3529	–	–	827.06 ± 0.43	–
[4], x2 = 0.3858	–	–	829.54 ± 0.43	–
[4], x2 = 0.4384	–	–	833.53 ± 0.43	–
[4], x2 = 0.4683	–	–	835.82 ± 0.44	–
[4], x2 = 0.5046	–	–	838.6 ± 0.44	–
[4], x2 = 0.5548	–	–	842.49 ± 0.44	–
[4], x2 = 0.5825	–	–	844.66 ± 0.44	–
[4], x2 = 0.6397	–	–	849.17 ± 0.44	–
[4], x2 = 0.6747	–	–	851.95 ± 0.44	–
[4], x2 = 0.7079	–	–	854.61 ± 0.44	–
[4], x2 = 0.7776	–	–	860.26 ± 0.45	–
[4], x2 = 0.8646	–	–	867.44 ± 0.45	–
[4], x2 = 0.9428	–	–	874.02 ± 0.45	–

C1CCOCC1 [tetrahydropyran]
Conditions	mass density [kg/m3]	molar heat capacity at constant pressure [J/K/mol]	refractive index
[5]	878.91	–	–
[6]	–	149.32	–
[7]	–	–	1.41865
